The source of these data is publication doi:10.1101/2024.06.17.599194v1 (biorxiv, 2024).

A word on the IC50: it is the concentration that inhibits the measured activity by half. The term Km denotes the substrate concentration at which the rate is half of its maximum.

Series [1] concerns the target T1, A. baumannii IspE (AbIspE) (Acinetobacter baumannii, UniProt B2HUM5).
T1 sequence (B2HUM5 1-277): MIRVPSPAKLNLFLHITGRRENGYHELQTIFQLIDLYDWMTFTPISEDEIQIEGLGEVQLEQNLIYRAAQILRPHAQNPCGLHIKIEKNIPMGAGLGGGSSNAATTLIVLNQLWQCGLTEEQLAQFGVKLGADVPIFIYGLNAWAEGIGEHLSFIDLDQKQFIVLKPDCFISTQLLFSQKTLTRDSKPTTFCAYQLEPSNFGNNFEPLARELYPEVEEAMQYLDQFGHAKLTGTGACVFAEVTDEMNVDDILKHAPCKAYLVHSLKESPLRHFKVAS
As to the kind of experiment: coupled spectrophotometric assay, dose-response. Format: biochemical.

In series [2] the target is T2, K. pneumoniae IspE (KpIspE) (Klebsiella pneumoniae, UniProt A6TAP2).
T2 sequence (A6TAP2 1-283): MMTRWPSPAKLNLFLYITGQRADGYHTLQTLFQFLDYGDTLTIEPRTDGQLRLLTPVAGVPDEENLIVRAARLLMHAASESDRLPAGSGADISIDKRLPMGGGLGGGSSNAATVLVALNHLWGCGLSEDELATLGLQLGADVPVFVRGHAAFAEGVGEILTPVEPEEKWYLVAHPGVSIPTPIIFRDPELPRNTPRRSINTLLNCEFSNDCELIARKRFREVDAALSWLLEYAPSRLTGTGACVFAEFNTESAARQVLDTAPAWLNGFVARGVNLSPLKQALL
Briefly: coupled spectrophotometric assay, dose-response. It counts as biochemical.

Another series deals with T3, E. coli IspE (EcIspE) (Escherichia coli, UniProt P62615).
T3 sequence (P62615 1-283): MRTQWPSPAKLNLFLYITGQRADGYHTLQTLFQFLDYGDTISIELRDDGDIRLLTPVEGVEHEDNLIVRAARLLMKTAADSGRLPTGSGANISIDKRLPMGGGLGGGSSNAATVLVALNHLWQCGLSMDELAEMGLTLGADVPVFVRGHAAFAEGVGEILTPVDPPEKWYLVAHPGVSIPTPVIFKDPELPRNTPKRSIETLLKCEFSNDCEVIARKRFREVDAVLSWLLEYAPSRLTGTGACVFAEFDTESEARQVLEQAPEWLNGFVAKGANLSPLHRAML
As to the kind of experiment: coupled spectrophotometric assay, dose-response. It counts as biochemical.

Substrate in series [3]: C[C@](O)(CO)[C@H](O)COP(=O)(O)OP(=O)(O)OC[C@H]1O[C@@H](n2ccc(N)nc2=O)[C@H](O)[C@@H]1O
As to the kind of experiment: purified protein. The settings on record: room temperature; ATP 1 mM.

Substrate in series [4]: Nc1ncnc2c1ncn2[C@@H]1O[C@H](COP(=O)(O)OP(=O)(O)OP(=O)(O)O)[C@@H](O)[C@H]1O
Briefly: purified protein. The settings on record: room temperature; CDP-ME 2 mM.

Consider `Nc1nc(=O)n(C2CCCS2)cc1C#CCNS(=O)(=O)C1CC1` (racemic) [compound 1, (±)-1], for which the values for the IC50 (in series [1]; in series [2]; against E. coli IspE (EcIspE)) were 20 ± 3 µM, 8 ± 1.5 µM and 13 ± 2.9 µM, respectively.
Consider `Nc1nc(=O)[nH]cc1C#CCNS(=O)(=O)C1CC1` [compound 2, 2], for which the values for the IC50 (in series [2]; on E. coli IspE (EcIspE)) were 44.3 ± 4.9 µM and 36.5 ± 1.6 µM, respectively.
For `Nc1nc(=O)[nH]cc1C#CCNS(=O)(=O)C1CCCC1` [compound 3, 3], in that order: 11.3 ± 0.6 µM and 10.3 ± 0.7 µM.
For `Nc1nc(=O)[nH]cc1C#CCNS(=O)(=O)C1CCCCC1` [compound 4, 4], in that order: 5.2 ± 1.3 µM and 6.2 ± 3.19 µM.

B1: K. pneumoniae IspE (KpIspE) (Klebsiella pneumoniae subsp. pneumoniae MGH 78578) (protein)
chain: MMTRWPSPAKLNLFLYITGQRADGYHTLQTLFQFLDYGDTLTIEPRTDGQLRLLTPVAGVPDEENLIVRAARLLMHAASESDRLPAGSGADISIDKRLPMGGGLGGGSSNAATVLVALNHLWGCGLSEDELATLGLQLGADVPVFVRGHAAFAEGVGEILTPVEPEEKWYLVAHPGVSIPTPIIFRDPELPRNTPRRSINTLLNCEFSNDCELIARKRFREVDAALSWLLEYAPSRLTGTGACVFAEFNTESAARQVLDTAPAWLNGFVARGVNLSPLKQALL
For B1, the values for the Km in “purified protein [3]” and in the series “purified protein [4]” were 170 µM and 348 µM, respectively.

B2: A. baumannii IspE (AbIspE) (Acinetobacter baumannii ACICU) (protein)
chain: MIRVPSPAKLNLFLHITGRRENGYHELQTIFQLIDLYDWMTFTPISEDEIQIEGLGEVQLEQNLIYRAAQILRPHAQNPCGLHIKIEKNIPMGAGLGGGSSNAATTLIVLNQLWQCGLTEEQLAQFGVKLGADVPIFIYGLNAWAEGIGEHLSFIDLDQKQFIVLKPDCFISTQLLFSQKTLTRDSKPTTFCAYQLEPSNFGNNFEPLARELYPEVEEAMQYLDQFGHAKLTGTGACVFAEVTDEMNVDDILKHAPCKAYLVHSLKESPLRHFKVAS
For B2, the Michaelis constant (Km) came out at 358 µM in the series “purified protein [3]” and 474 µM in “purified protein [4]”.

B3: E. coli IspE (EcIspE) (Escherichia coli K-12) (protein)
chain: MRTQWPSPAKLNLFLYITGQRADGYHTLQTLFQFLDYGDTISIELRDDGDIRLLTPVEGVEHEDNLIVRAARLLMKTAADSGRLPTGSGANISIDKRLPMGGGLGGGSSNAATVLVALNHLWQCGLSMDELAEMGLTLGADVPVFVRGHAAFAEGVGEILTPVDPPEKWYLVAHPGVSIPTPVIFKDPELPRNTPKRSIETLLKCEFSNDCEVIARKRFREVDAVLSWLLEYAPSRLTGTGACVFAEFDTESEARQVLEQAPEWLNGFVAKGANLSPLHRAML
Turning to B3, the Km in the series “purified protein [3]” was determined as 200 µM; in “purified protein [4]”, 420 µM.
